Reference: patent US20220395464A1, “ORALLY ADMINISTERED SOLID DOSAGE FORM DRUG” (ASCENTAWITS PHARMACEUTICALS, LTD., priority 2019, published 2022)
Read-outs that look alike come from different tables or passages of the source.

Assay: Pharmacokinetics after single intravenous drip infusion, plasma LC-MS/MS
Assay type: in vivo, Philippine macaques
Conditions: for concentration at 0.17 hr / concentration at 0.25 hr / concentration at 0.5 hr / concentration at 0.75 hr / concentration at 1 hr: intravenous, AST-3424-D6 intravenous drip infusion 0.42 mg/kg
Description: AST-3424 and AST-3424-D6 (i.e. the compound of formula I) were administered to Philippine macaques by intravenous drip infusion, and blood samples were collected at different appointed times. LC-MS/MS was used to determine concentrations of the test substances in plasma of the Philippine macaques after administration, and relevant pharmacokinetic parameters were calculated.
Preparation method: 0.447 ml of AST-3424 (0.2 mg/ml) and 0.481 ml of AST-3424-D6 (0.2 mg/ml) were added into 104.272 ml of the dissolvent, respectively, and mixed for 5 minutes to obtain colorless and clarified solutions with pH 7.0.
The four male Philippine macaques were purchased from Guangxi Xiongsen Primate Development Experiment Co., Ltd. All Philippine macaques were healthy with qualified medical examination and no abnormality. Three of animals were used for the experiment, and one of them was used to prepare blank plasma.
About 0.8 ml of blood samples were collected through femoral vein and anticoagulated with heparin sodium. Appointed times of blood collection were before administration, 0.17, 0.25, 0.5, 0.75, 1, 2, and 4 hours after administration.
The blood samples were placed on ice after collection. Next, plasma samples were separated by centrifugation, and centrifugation conditions were 3500 rpm for 10 minutes at 4° C. Then, the collected plasma samples were stored at −80° C. until analysis. The plasma samples were analyzed by LC-MS/MS by an analysis department of an experimental institution. Besides, Lower limit of quantifications (LLOQ) of AST-3424 and AST-3424-D6 detection were 1 ng/ml. The accuracy of analysis results of an accompanying standard curve and a quality control samples all met the relevant requirements of biological analysis (the accuracy of the quality control samples exceeding 66.7% was between 85˜115%) in a process of the sample detection.
According to average blood concentration data of each group at each appointed time, the pharmacokinetic parameters of the compounds were respectively computed by a pharmacokinetic computing software, a non-compartmental model. In addition, the pharmacokinetic parameters were AUC0-t, AUC0-∞, MRT0-∞, Cmax, Tmax, t1/2, etc. In the case of the concentrations of the samples whose concentration being lower than a lower limit of quantification, the following schemes were used to compute the pharmacokinetic parameters. The samples sampled before reaching Cmax shall be computed as zero value, while the samples sampled after reaching Cmax shall be computed as non-quantifiable (marked as “BLQ”).
After a single intravenous infusion of the compounds AST-3424 and AST-3424-D6 was administered to the Philippine macaques, the whole blood samples of the corresponding animals were collected at the appointed times. Next, the whole blood samples were processed and biologically analyzed to obtain concentrations of the compounds in the plasma at the different appointed times. Results of the assay were listed in Table 14 below, and corresponding means of the plasma-drug concentration-time curves are shown in FIG. 3.
According to the plasma-drug concentration data of each drug group, the pharmacokinetic parameters of each compound group were computed using the non-compartmental model of the pharmacokinetic computing software. The pharmacokinetic

[1] = male, Philippine macaque, plasma, 0.42 mg/kg, individual animals 101, 102, 103, read-out: Plasma-drug concentration
[2] = male, Philippine macaque, plasma, 0.42 mg/kg, read-out: Plasma-drug concentration, mean

SMILES: [2H]C([2H])([2H])N(C(=O)c1cccc(Oc2cc([C@H](C)OP(=O)(N3CC3)N3CC3)ccc2[N+](=O)[O-])c1)C([2H])([2H])[2H] [AST-3424-D6]
- Vz (AST-3424-D6 single intravenous infusion, Table 15 heading 0.58 mg/kg (text: 0.42 mg/kg), plasma, individual animals 101, 102, 103): 0.23679 L/kg
- Integral area under the drug-time curve (AUC) compared with AST-3424, in words (Philippine macaques, FIG. 3, 0.42 mg/kg AST-3424-D6 vs 0.58 mg/kg AST-3424): smaller
- AUC(0-t) (male, Philippine macaque, cynomolgus monkey, plasma, iv, 0.42 mg/kg, AST-3424-D6 single intravenous infusion, Table 15 heading 0.58 mg/kg (text: 0.42 mg/kg), plasma, individual animals 101, 102, 103, read-out: AUC(0−t)): 286 ng·h/mL
- AUC(0-inf) (male, Philippine macaque, cynomolgus monkey, plasma, iv, 0.42 mg/kg, AST-3424-D6 single intravenous infusion, Table 15 heading 0.58 mg/kg (text: 0.42 mg/kg), plasma, individual animals 101, 102, 103, read-out: AUC(0−∞)): 334 ng·h/mL
- clearance (male, Philippine macaque, cynomolgus monkey, plasma, iv, 0.42 mg/kg, AST-3424-D6 single intravenous infusion, Table 15 heading 0.58 mg/kg (text: 0.42 mg/kg), plasma, individual animals 101, 102, 103, read-out: Cl (converted)): 20.9 mL/min/kg
- Cmax (male, Philippine macaque, cynomolgus monkey, plasma, iv, 0.42 mg/kg, AST-3424-D6 single intravenous infusion, Table 15 heading 0.58 mg/kg (text: 0.42 mg/kg), plasma, individual animals 101, 102, 103, read-out: Cmax): 485 ng/mL
- MRT last (male, Philippine macaque, cynomolgus monkey, plasma, iv, 0.42 mg/kg, AST-3424-D6 single intravenous infusion, Table 15 heading 0.58 mg/kg (text: 0.42 mg/kg), plasma, individual animals 101, 102, 103, read-out: MRT(0−t)): 9 min
- MRT inf (male, Philippine macaque, cynomolgus monkey, plasma, iv, 0.42 mg/kg, AST-3424-D6 single intravenous infusion, Table 15 heading 0.58 mg/kg (text: 0.42 mg/kg), plasma, individual animals 101, 102, 103, read-out: MRT(0−∞)): 9.6 min
- half-life (male, Philippine macaque, cynomolgus monkey, plasma, iv, 0.42 mg/kg, AST-3424-D6 single intravenous infusion, Table 15 heading 0.58 mg/kg (text: 0.42 mg/kg), plasma, individual animals 101, 102, 103, read-out: T1/2 (converted)): 7.8 min
- Vd (male, Philippine macaque, cynomolgus monkey, plasma, iv, 0.42 mg/kg, AST-3424-D6 single intravenous infusion, Table 15 heading 0.58 mg/kg (text: 0.42 mg/kg), plasma, individual animals 101, 102, 103, read-out: Vss): 0.198 L/kg
- Vd (male, Philippine macaque, cynomolgus monkey, plasma, iv, 0.42 mg/kg, AST-3424-D6 single intravenous infusion, Table 15 heading 0.58 mg/kg (text: 0.42 mg/kg), plasma, individual animals 101, 102, 103, read-out: Vz): 0.234 L/kg
- AUC(0-t) (male, Philippine macaque, cynomolgus monkey, plasma, iv, 0.42 mg/kg, AST-3424-D6 single intravenous infusion, Table 15 heading 0.58 mg/kg (text: 0.42 mg/kg), plasma, read-out: AUC(0−t), Mean): 302 ± 22.6 ng·h/mL
- AUC(0-inf) (male, Philippine macaque, cynomolgus monkey, plasma, iv, 0.42 mg/kg, AST-3424-D6 single intravenous infusion, Table 15 heading 0.58 mg/kg (text: 0.42 mg/kg), plasma, read-out: AUC(0−∞), Mean): 315 ± 27.2 ng·h/mL
- Cmax (male, Philippine macaque, cynomolgus monkey, plasma, iv, 0.42 mg/kg, AST-3424-D6 single intravenous infusion, Table 15 heading 0.58 mg/kg (text: 0.42 mg/kg), plasma, read-out: Cmax, Mean): 522 ± 46 ng/mL
- MRT last (male, Philippine macaque, cynomolgus monkey, plasma, iv, 0.42 mg/kg, AST-3424-D6 single intravenous infusion, Table 15 heading 0.58 mg/kg (text: 0.42 mg/kg), plasma, read-out: MRT(0−t), Mean): 8.4 ± 0.6 min
- MRT inf (male, Philippine macaque, cynomolgus monkey, plasma, iv, 0.42 mg/kg, AST-3424-D6 single intravenous infusion, Table 15 heading 0.58 mg/kg (text: 0.42 mg/kg), plasma, read-out: MRT(0−∞), Mean): 9 min
- half-life (male, Philippine macaque, cynomolgus monkey, plasma, iv, 0.42 mg/kg, AST-3424-D6 single intravenous infusion, Table 15 heading 0.58 mg/kg (text: 0.42 mg/kg), plasma, read-out: T1/2, Mean (converted)): 7.2 min
- Tmax (male, Philippine macaque, cynomolgus monkey, plasma, iv, 0.42 mg/kg, AST-3424-D6 single intravenous infusion, Table 15 heading 0.58 mg/kg (text: 0.42 mg/kg), plasma, read-out: Tmax, Mean): 18.6 min
- Vd (male, Philippine macaque, cynomolgus monkey, plasma, iv, 0.42 mg/kg, AST-3424-D6 single intravenous infusion, Table 15 heading 0.58 mg/kg (text: 0.42 mg/kg), plasma, read-out: Vss, Mean): 0.202 L/kg
- concentration at 0.17 hr [1]: 416 ng/mL
- concentration at 0.17 hr [2]: 490 ng/mL
- concentration at 0.25 hr [1]: 479 ng/mL
- concentration at 0.25 hr [2]: 505 ng/mL
- concentration at 0.5 hr [1]: 485 ng/mL
- concentration at 0.5 hr [2]: 502 ng/mL
- concentration at 0.75 hr [1]: 113 ng/mL
- concentration at 0.75 hr [2]: 109 ng/mL
- concentration at 1 hr [1]: 41 ng/mL
- concentration at 1 hr [2]: 33.8 ng/mL
- clearance (male, cynomolgus monkey, plasma, iv, 0.42 mg/kg, AST-3424-D6 single intravenous infusion, Table 15 heading 0.58 mg/kg (text: 0.42 mg/kg), plasma, read-out: Cl, Mean (converted)): 22.3 mL/min/kg
- Vd (male, cynomolgus monkey, plasma, iv, 0.42 mg/kg, AST-3424-D6 single intravenous infusion, Table 15 heading 0.58 mg/kg (text: 0.42 mg/kg), plasma, read-out: Vz, Mean): 0.235 L/kg
